Experimental data taken from patent publication US11524966B1 (Valo Early Discovery, Inc., priority 2017, dated 2022).

Target: T1, USP28 (His-tagged USP28-FL-mammalian) (Homo sapiens, UniProt Q96RU2)
T1 construct: Expression of USP28 (1-1077)-TEV-6*His (pTT5 vector); made in house; host or cells: Expi293f cells (pTT5 vector)
T1 sequence (Q96RU2 1-1077): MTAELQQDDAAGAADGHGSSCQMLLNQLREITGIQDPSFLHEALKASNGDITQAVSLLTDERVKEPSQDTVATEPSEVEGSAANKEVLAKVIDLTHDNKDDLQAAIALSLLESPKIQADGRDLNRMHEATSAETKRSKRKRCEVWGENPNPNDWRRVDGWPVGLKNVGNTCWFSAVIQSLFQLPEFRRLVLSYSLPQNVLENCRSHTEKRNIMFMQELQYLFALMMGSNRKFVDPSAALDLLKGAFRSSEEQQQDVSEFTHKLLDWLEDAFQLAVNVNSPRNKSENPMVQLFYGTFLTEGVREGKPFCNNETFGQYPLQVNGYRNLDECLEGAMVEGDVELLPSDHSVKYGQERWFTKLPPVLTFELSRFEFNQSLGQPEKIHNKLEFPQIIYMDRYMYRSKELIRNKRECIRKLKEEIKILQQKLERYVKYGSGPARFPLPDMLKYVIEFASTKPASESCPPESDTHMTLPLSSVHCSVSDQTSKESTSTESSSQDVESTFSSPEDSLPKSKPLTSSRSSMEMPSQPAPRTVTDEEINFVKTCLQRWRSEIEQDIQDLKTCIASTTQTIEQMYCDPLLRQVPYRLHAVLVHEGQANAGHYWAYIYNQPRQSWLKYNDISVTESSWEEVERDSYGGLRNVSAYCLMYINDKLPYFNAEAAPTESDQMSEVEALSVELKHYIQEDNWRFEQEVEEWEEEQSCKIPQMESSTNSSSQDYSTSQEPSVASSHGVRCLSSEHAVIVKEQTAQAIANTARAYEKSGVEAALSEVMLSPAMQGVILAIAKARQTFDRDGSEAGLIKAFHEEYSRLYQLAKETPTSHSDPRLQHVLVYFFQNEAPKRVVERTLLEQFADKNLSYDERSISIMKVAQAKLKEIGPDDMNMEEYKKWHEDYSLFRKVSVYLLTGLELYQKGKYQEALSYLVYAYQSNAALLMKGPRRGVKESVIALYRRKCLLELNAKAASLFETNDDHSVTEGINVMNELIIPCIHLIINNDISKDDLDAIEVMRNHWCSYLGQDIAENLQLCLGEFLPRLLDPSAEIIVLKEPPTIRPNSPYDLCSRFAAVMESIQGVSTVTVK
Assay: Ubiquitin-Rhodamine 110 Assay for USP28 Activity, Example A-1(a)
Format: biochemical
Settings: Ubiquitin-Rhodamine 110 assay, Example A-1(a); read-out: USP28 A-1(a) IC50 range
Outline: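 Full-length His-tagged human USP28 (1-1077, Expi293f-expressed), […], with 25 nM Ub-Rh110 (<<Km) in pH 8.0 Tris buffer with BME, BGG, Triton X-100. 10-point dilutions (25 μM-1.3 nM), 45 min at room temperature, citric acid stop, fluorescence 485/535 nm; IC50 by 4-parameter fit.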

For `O=C(N[C@H]1COc2cc(N3CCNCC3)ccc2C1)c1cnn2ccccc12` [Example 460, (R)-N-(7-(piperazin-1-yl)chroman-3-yl)pyrazolo[1,5-a]pyridine-3-carboxamide], the IC50 was > 2 µM.

In the case of `COc1ccn2ncc(C(=O)N[C@H]3COc4cc(N5CCNCC5)ccc4C3)c2c1` [Example 461, (R)-5-methoxy-N-(7-(piperazin-1-yl)chroman-3-yl)pyrazolo[1,5-a]pyridine-3-carboxamide], the IC50 is reported as > 2 µM.

In the case of `O=C(N[C@H]1COc2cc(N3CCNCC3)ccc2C1)c1cnn2cc(Cl)ccc12` [Example 462, (R)-6-chloro-N-(7-(piperazin-1-yl)chroman-3-yl)pyrazolo[1,5-a]pyridine-3-carboxamide], the IC50 is reported as > 2 µM.

In the case of `Cc1cc(C)n2ncc(C(=O)N[C@H]3COc4cc(N5CCNCC5)ccc4C3)c2n1` [Example 463, (R)-5,7-dimethyl-N-(7-(piperazin-1-yl)chroman-3-yl)pyrazolo[1,5-a]pyrimidine-3-carboxamide], the IC50 is reported as > 2 µM.

For `O=C(N[C@H]1COc2cc(N3CCNCC3)ccc2C1)c1cn2nc(Cl)ccc2n1` [Example 464, (R)-6-chloro-N-(7-(piperazin-1-yl)chroman-3-yl)imidazo[1,2-b]pyridazine-2-carboxamide], the IC50 was > 2 µM.

In the case of `Cc1ccn2ncc(C(=O)N[C@H]3COc4cc(N5CCNCC5)ccc4C3)c2c1` [Example 465, (R)-5-methyl-N-(7-(piperazin-1-yl)chroman-3-yl)pyrazolo[1,5-a]pyridine-3-carboxamide], the IC50 is reported as > 2 µM.

In the case of `O=C(N[C@H]1COc2cc(N3CCNCC3)ccc2C1)c1cnn2cccnc12` [Example 466, (R)-N-(7-(piperazin-1-yl)chroman-3-yl)pyrazolo[1,5-a]pyrimidine-3-carboxamide], the IC50 is reported as > 2 µM.

`O=C(N[C@H]1COc2cc(N3CCNCC3)ccc2C1)c1ccc(NCc2cccc(Cl)c2)nc1` [Example 467, (R)-6-((3-chlorobenzyl)amino)-N-(7-(piperazin-1-yl)chroman-3-yl)nicotinamide] gave an IC50 of 0.2 to 2 µM.

`O=C(N[C@H]1COc2cc(N3CCNCC3)ccc2C1)c1ccc(NCc2cccnc2)nc1` [Example 468, (R)-N-(7-(piperazin-1-yl)chroman-3-yl)-6-((pyridin-3-ylmethyl)amino)nicotinamide] was tested, and the IC50 was 0.2 to 2 µM.

Molecule `O=C(N[C@H]1COc2cc(N3CCNCC3)ccc2C1)c1ccc(NCc2cccc(C(F)(F)F)c2)nc1` [Example 469, (R)-N-(7-(piperazin-1-yl)chroman-3-yl)-6-((3-(trifluoromethyl)benzyl)amino)nicotinamide] has an IC50 of 0.05 to 0.2 µM.

`O=C(N[C@H]1COc2cc(N3CCNCC3)ccc2C1)c1ccc(NCc2ccccn2)nc1` [Example 470, (R)-N-(7-(piperazin-1-yl)chroman-3-yl)-6-((pyridin-2-ylmethyl)amino)nicotinamide] was tested, and the IC50 was > 2 µM.

`O=C(N[C@H]1COc2cc(N3CCNCC3)ccc2C1)c1ccc(NCc2ccc3c(c2)OCCO3)nc1` [Example 471, (R)-6-(((2,3-dihydrobenzo[b][1,4]dioxin-6-yl)methyl)amino)-N-(7-(piperazin-1-yl)chroman-3-yl)nicotinamide] was tested, and the IC50 was 0.2 to 2 µM.

`O=C(N[C@H]1COc2cc(N3CCNCC3)ccc2C1)c1ccc(NCc2ccc3c(c2)CCO3)nc1` [Example 472, (R)-6-(((2,3-dihydrobenzofuran-5-yl)methyl)amino)-N-(7-(piperazin-1-yl)chroman-3-yl)nicotinamide] was tested, and the IC50 was 0.2 to 2 µM.

With `CC(=O)Nc1cccc(CNc2ccc(C(=O)N[C@H]3COc4cc(N5CCNCC5)ccc4C3)cn2)c1` [Example 473, (R)-6-((3-acetamidobenzyl)amino)-N-(7-(piperazin-1-yl)chroman-3-yl)nicotinamide] the IC50 was > 2 µM.

In the case of `CCc1cccc2c(C(=O)N[C@H]3COc4cc(N5CCNCC5)ccc4C3)cnn12` [Example 474, 7-ethyl-N-[(3R)-7-(piperazin-1-yl)-3,4-dihydro-2H-1-benzopyran-3-yl]pyrazolo[1,5-a]pyridine-3-carboxamide], the IC50 is reported as 0.001 to 0.05 µM.

Work on `O=C(N[C@H]1COc2cc(N3CCNCC3)ccc2C1)c1cnn2c(CO)cccc12` [Example 475, 7-(hydroxymethyl)-N-[(3R)-7-(piperazin-1-yl)-3,4-dihydro-2H-1-benzopyran-3-yl]pyrazolo[1,5-a]pyridine-3-carboxamide] yielded an IC50 of 0.2 to 2 µM.
